The text below walks through data of article PMC11965660, “Isobavachalcone ameliorates Alzheimer disease pathology by autophagy-mediated clearance of amyloid beta and inhibition of NLRP3 inflammasome in primary astrocytes and 5x-FAD mice” (Frontiers in Pharmacology, 2025).

Molecules are shown by their SMILES.

One assay deals with Aβ plaques. The assay is described as follows: Immunohistochemistry of Aβ in hippocampus. It counts as in vivo, 5x-FAD mice. Particulars: for average number of Aβ plaques: 5x-FAD mice. An excerpt: (§1) Hemizygous 5x-FAD transgenic mice (B6.Cg-Tg(APPSwFlLon, PSEN1*M146L*L286V) 6799Vas/Mmjax; MMRRC Strain: 034848-JAX) on congenic C57BL/6J genetic background were used for experiments. The 5x-FAD mice were genotyped using APP-specific qPCR probes to detect the transgene as per the protocol of Jackson Laboratory. Six months old 5x-FAD mice were randomly divided into three groups (n = 5), based on their body weights, with three males and two females in each group. We used mixed-cohort of males and females for our study to exclude any gender biased effect of IBC. Also, AD symptoms are more pronounced in females than in males ([Aggarwal and Mielke, 2023]), making it possible that males and females respond differently to the drug and treatment. Considering this, it is important to show effect of IBC on both sexes. At this age, Aβ deposition and neuroinflammation has already progressed in these mice. We have used IBC as a curative drug rather than a preventive drug. Prior to the initiation of the study, all the animals were acclimatized for 1 week under standard laboratory conditions; animals were drug naive with no prior procedures performed. All testing were performed from 1 to 4 p.m. IBC was orally (OD) given to two groups at different doses, 25 mg/kg (1% DMSO, 2% Tween 80, 19% PEG200, and 78% distilled water) and 50 mg/kg (1% DMSO, 5% Tween 80, 19% PEG200% and 75% distilled water) using oral gavage. 5x-FAD control mice were administered with vehicle (1% DMSO, 5% Tween 80, 19% PEG200% and 75% distilled water). For behavioral and Immunohistochemistry assays, experimenters were blinded to animal identity while carrying out the procedures.
Mice’s hippocampus tissue was fixed in 10% formalin. Dehydrated tissue slices were made and placed on slides. For analysis, tissue was rehydrated following subsequent incubation in xylene, xylene: ethanol, 100% ethanol, 90% ethanol, 70% and 50% ethanol. After tissue rehydration, cells were permeabilized using 0.4% Triton-X100 for 10 min. […] Images were taken in a CQ1 high throughput imaging system and analyzed using cell pathfinder software.

A further assay concerns NLRP3 inflammasome. The assay is described as follows: NLRP3 inflammasome activation in primary astrocytes: immunoblotting, ASC oligomers and specks, co-localization. It counts as cell-based, C57BL/6J mice. Particulars: for co-localization of CASP1 and NLRP3: 10 μM. Here is the method:
Primary astrocytes were first treated with microglia conditional media to induce astrogliosis ([Liddelow et al., 2017]). For this, the microglia (N9) cell line, provided by Dr. Anirban Basu (National Brain Research Centre, Gurgaon, India) was cultured in RPMI-1640. N9 cells (Passage 28-35) were seeded in 24 well plate at density 0.05 × 10^6 per well. The cells were treated with 1 μg/ml LPS, and supernatant was collected after 24 h. Seeded astrocytes were then treated with the LPS stimulated N9 cells supernatant for 24 h. Thereafter, the treatment for NLRP3 inflammasome activation was given, including priming with fresh 1 μg/ml LPS for 4 h, followed by washing and IBC or MCC950 (100 nM) treatment for 1 h in incomplete media (media without fetal bovine serum). ATP at 5 mM concentration was used as secondary signal for 30 min.
Following treatment with 5 and 10 μM IBC (1 h) and NLRP3 inflammasome activation in primary astrocytes, cells were lysed with ice-cold buffer (KCl [150 mM], HEPES-KOH [20 mM, pH 7.5], NP-40 [1%], sodium orthovanadate [1 mM], PMSF [0.1 mM] and protease inhibitor cocktail [1%]). Cells were centrifuged at 300 g for 10 min. The supernatant was collected for western blot analysis of total ASC protein. The pellet was washed with cold PBS and resuspended in 500 µL cold PBS. For the crosslinking of ASC, 2 mM of […] was added to the resuspended pellet and incubated at 37°C for 30 min in water bath. After centrifugation, the supernatant was discarded, and a 2X Laemmli buffer was added to the pellet. The samples were heated at 95°C for 5 min and subjected to western blotting for analyzing ASC oligomers.
Levels of cleaved IL-1β and caspase-1 were analyzed in cellular supernatant. The supernatant collected after the end of the experiment was incubated with StartaClean resin for 1 h at 4°C. Samples were kept on rotation so that the resin could bind properly with proteins. The concentrated resin pellet was obtained by centrifuging samples at 300 g for 10 min 2X Laemmli buffer was added to the resin pellet, heated at 95°C for 10 min, and subjected to western blotting.
Cellular lysates were prepared using radio immuno precipitation assay (RIPA) buffer for protein analysis. Briefly, the cell pellet was dissolved in RIPA buffer containing sodium fluoride, sodium orthovanadate, phenyl methyl sulfonyl fluoride (PMSF) and 1% protease inhibitor cocktail for 1 h with vertexing sample every 15 min. The supernatant was collected after high-speed centrifugation of samples for 20 min at 4°C. For analysis of proteins in mice hippocampi, the hippocampi isolated from mice brains was immediately washed with saline and stored in liquid nitrogen. For lysates preparation, tissue was homogenized in RIPA buffer substituted with sodium fluoride, sodium orthovanadate, phenyl methyl sulfonyl fluoride and 1% protease inhibitor cocktail. Total protein was measured using Bradford assay. Proteins were separated using SDS-PAGE and then transferred from gel to PVDF membrane. The protein of interest was labeled with a specific primary antibody overnight at 4°C. Further, the blot was incubated with corresponding HRP-conjugated secondary antibody for 1 h at room temperature. The band were visualized in the Genaxy Chemi Doc imaging system (Make: Syngene, Maryland, USA; Model: G: BOX, XT-4). Densitometry analysis of all the immunoblots was performed by using ImageJ software. Band density of proteins was normalized with β-actin. The phosphorylated proteins were normalized with their total forms.
Cells were seeded on coverslips in 6 well plates. After treatments, cells were fixed with 4% paraformaldehyde (PFA) for 15 min and permeabilized with 0.1% Triton-X 100 for 7 min. Blocking was done for 30 min with 2% BSA, followed by overnight incubation with primary antibody. Alexa fluor conjugated secondary antibody incubation was given to cells for 1 h for labeling. The nucleus was stained with 4,6-diamidino-2-phenylindole (DAPI) (1 μg/mL) for 10 min. […]

Another assay relates to Aβ42. The assay is described as follows: Aβ estimation in plasma by ELISA. It counts as in vivo, 5x-FAD mice. The following applies: 25 and 50 mg/kg, vs untreated 5x-FAD control.
Description: as §1, with “IBC was orally (OD) given to two groups at different doses, 25 mg/kg (1% DMSO, 2% Tween 80, 19% PEG200, and 78% distilled water) and 50 mg/kg (1% DMSO, 5% Tween 80, 19% PEG200% and 75% distilled water) using oral gavage. 5x-FAD control mice were administered with vehicle (1% DMSO, 5% Tween 80, 19% PEG200% and 75% distilled water). For behavioral and Immunohistochemistry assays, experimenters were blinded to animal identity while carrying out the procedures.” left out
After the end of the experiment, blood was collected from the retinal orbital plexus of mice in EDTA-coated vials. […] The levels of Aβ in the plasma were measured by using the protein-specific ELISA kit.

Where [1] appears, read: LPS + ATP, 5 and 10 μM, western blot.
[2] abbreviates: in the presence of LPS and ATP, 5 and 10 μM.

In the case of `CC(C)=CCc1c(O)ccc(C(=O)/C=C/c2ccc(O)cc2)c1O` [IBC, isobavachalcone], the “average number of Aβ plaques” value in the assay with Aβ plaques (25 mg/kg oral 2 months) was 21. The “average number of Aβ plaques” value in the assay with Aβ plaques (50 mg/kg oral 2 months) amounted to 15. Further, in the assay on Aβ plaques (25 and 50 mg/kg, vs 5x-FAD control), the “total Aβ fluorescence intensity” value is reported as “highly significant decline”. Besides, the ASC speck formation entry in the assay with NLRP3 inflammasome (5 μM and 10 µM, vs cells induced with ATP) is reported as “highly significant (p < 0.0001) reduction”. For the same molecule, the “co-localization of CASP1 and NLRP3” value with NLRP3 inflammasome (in the presence of siAMPK) is recorded as “did not affect the co-localization”. In addition, the “co-localization of CASP1 and NLRP3” value in the assay with NLRP3 inflammasome (vs LPS + ATP) is on record as “reduced the co-localization”. Also, the “ASC monomer, dimer, and oligomer formation” value with NLRP3 inflammasome (LPS + ATP, 5 and 10 μM) is given as “inhibited”. In the assay on NLRP3 inflammasome (setting [1]), the “cleaved CASP1 in supernatant” value is listed as “reduced release” and the “cleaved IL-1β in supernatant” value is on record as “reduced release”. Moreover, the NLRP3 protein expression result in the assay with NLRP3 inflammasome (LPS + ATP, western blot) is listed as “no change”. For the same molecule, in the assay with NLRP3 inflammasome (setting [2]), the “AMPK phosphorylation (Thr 172)” value is recorded as “significantly enhanced phosphorylation”, the LC3B-II level entry is recorded as “marked increase” and the SQSTM1 level result is “significant decline”. The “inhibitory effect on IL-1b and CASP1 under AMPK knockdown” value in the assay on NLRP3 inflammasome (siAMPK, LPS + ATP) is on record as “completely reversed”. Further, the “Aβ42 in blood plasma” value in the assay on Aβ42 was “reduced levels”.
